From US10987357B2, “Aerosolized fluoroquinolones and uses thereof” (Horizon Orphan, LLC, priority 2005, dated 2021)
Like-named read-outs stand apart in the source and are kept apart here.

Legend:
[1] = tested on: methicillin resistant Staphylococcus aureus (MRSA); details: cited from earlier work
[2] = tested on: Pseudomonas aeruginosa (Pa); details: cited from earlier work
[3] = tested on: Sa; details: Table 7; cited from earlier work
[4] = tested on: Streptococcus pneumonia (Sp); details: cited from earlier work; for Sp MIC90: Table 7; for SP MIC90: Table 6
[5] = Rat pharmacokinetic model (IV vs microspray aerosol, intratracheal); format: in vivo, rats; details: 10 mg/kg; for AUC / AUC(0-inf) / half-life: rat; for AUC: epithelial lining fluid (ELF); for AUC(0-inf) / half-life: serum; for half-life: read-out: Serum t1/2 (converted)
Method: […] Blood samples are taken at various times over 3 hours to determine the plasma pharmacokinetic parameters. […] The plasma and tissue concentrations are determined by an HPLC method and the data are then fit using WinNonlin.

[6] = physchem; details: for Initial Solution pH / Initial Solution Appearance: 10 mg/mL in sterile water; for Initial Solution Appearance: room temperature; for After pH Adjustment Appearance / After pH Adjustment pH / pH of final solution: 10 mg/mL; for After pH Adjustment Appearance / After pH Adjustment pH: titrated with 1N HCl; for solubility on titration with 1N HCl: pH 1.5; for solubility at 10 min: aqueous buffer, thermodynamic from solid
Method: A 2 to 20 mg sample of each antibiotic was weighed into sterile plastic tubes and brought up with a volume of sterile water to make a 10 mg/mL solution or suspension of the antibiotic. Samples were incubated for approximately 10 minutes at room temperature with occasional mixing, prior to further handling.
The insoluble solutions were titrated with 1N HCl to the point of visible solubility, and the pH of the solubilized solution determined.
After the pH adjustment, and following a further 10 minute incubation period with occasional mixing, the final appearance of the solutions was determined, just prior to the aerosol tolerability and taste test.

[7] = tested on: MSSA; details: Table 6; cited from earlier work
[8] = tested on: P. aeruginosa strain PAM 1723; assay: Mouse lung infection efficacy model; details: Pseudomonas aeruginosa, PAM1723, in Mus musculus
Method: The inoculum is adjusted to ca. 5×10^6 CFU/ml by correlation of absorbance at 600 nm with predetermined plate counts. […] On day 5, mice are infected by an intratracheal instillation of 0.05 ml of inoculum while under isoflurane anesthesia (5% isoflurane in oxygen running at 4 L/min). […] Mice are sacrificed 1 and 4 hours after treatment, their lungs removed, homogenized and plated to determine colony counts.

[9] = in vivo
Method: In the second test, the tolerability and taste of a small aerosol sample from a 0.5 ml aliquot of the test formulation was determined in a single healthy human volunteer, following nebulization in a PARI eFlow nebulizer (Table 12).
The tolerability and taste of the drug during a very brief administration period and for a period of 10 minutes post administration were monitored. Tolerability parameters were of the following types: (i) cough, cough sensation, or sneezing (ii) irritation, burning or tightness of throat, (ii) irritation or runniness in nasal passages or eyes, (iii) irritation, burning or tightness of the lungs or shortness of breadth, and (iv) dizziness, headache, nausea or other systemic effects.

[10] = 1 h, read-out: DeltaLOG CPU 1 hr, route IT, dose 25 mg/kg, 1 hr post-drug administration
[11] = 4 h, read-out: DeltaLOG CPU 4 hr, route IT, dose 25 mg/kg, 4 hr post-drug administration
[12] = ip, 1 h, read-out: DeltaLOG CPU 1 hr, route IP, dose 25 mg/kg, 1 hr post-drug administration
[13] = ip, 4 h, read-out: DeltaLOG CPU 4 hr, route IP, dose 25 mg/kg, 4 hr post-drug administration

CN1CCN(c2c(F)cc3c(=O)c(C(=O)O)cn(CCF)c3c2F)CC1 [Fleroxacin]
MRSA MIC90 ([1]; Table 7): >4 µg/mL
Pa MIC90 ([2]; Table 7): 32 µg/mL
Sa MIC90 [3]: 1 µg/mL
Sp MIC90 [4]: 8 µg/mL

CN1C[C@@H]2C[C@H]1CN2c1cc2c(cc1F)c(=O)c(C(=O)O)cn2C1CC1 [Danofloxacin]
Pa MIC90 ([2]; Table 7): >16 µg/mL
Sa MIC90 [3]: 0.125 µg/mL

CCn1cc(C(=O)O)c(=O)c2cc(F)c(N3CCNCC3)nc21 [Enoxacin]
MRSA MIC90 ([1]; Table 7): >4 µg/mL
Pa MIC90 ([2]; Table 7): >32 µg/mL
Sa MIC90 [3]: 1 µg/mL
Sp MIC90 [4]: 16 µg/mL

CN1CCN(c2c(F)cc3c(=O)c(C(=O)O)cn4c3c2SCC4)CC1 [Rufloxacin]
MRSA MIC90 ([1]; Table 7): 64 µg/mL
Pa MIC90 ([2]; Table 7): 32 µg/mL
Sa MIC90 [3]: 2 µg/mL
Sp MIC90 [4]: 32 µg/mL

CNC1CCCN(c2c(F)cc3c(=O)c(C(=O)O)cn(C4CC4)c3c2OC)C1 (stereo not shown) [Balofloxacin]
MRSA MIC90 ([1]; Table 7): 8 µg/mL
Pa MIC90 ([2]; Table 7): 32 µg/mL
Sa MIC90 [3]: 0.25 µg/mL
Sp MIC90 [4]: 0.5 µg/mL

CCn1cc(C(=O)O)c(=O)c2cc(F)c(N3CCNCC3)cc21 [Norfloxacin]
MRSA MIC90 ([1]; Table 7): >4 µg/mL
F, % from Lung vs. IV ([5]; IT): 100%
AUC ([5]; inhaled or intranasal, IT): 41.7 µg·h/mL
AUC ([5]; iv): 3.27 µg·h/mL
Pa MIC90 ([2]; Table 7): 16 µg/mL
Sa MIC90 [3]: 1 µg/mL
Sp MIC90 [4]: 16 µg/mL

NC1CCN(c2nc3c(cc2F)c(=O)c(C(=O)O)cn3-c2ccc(F)cc2F)C1 (stereo not shown) [Tosufloxacin]
Initial Solution pH [6]: 3.5
Initial Solution Appearance [6]: white, turbid, visible
After pH Adjustment Appearance [6]: white, cloudy, less turbid,
After pH Adjustment pH [6]: 1.5
pH of final solution [6]: 1.5
solubility on titration with 1N HCl [6]: solubility was not reached by pH 1.5
MRSA MIC90 ([1]; Table 6): >16 µg/mL
MSSA MIC90 [7]: 0.125 µg/mL
Pa MIC90 ([2]; Table 6): 16 µg/mL
log reduction at 25 mg/kg [8, 10]: 0.48
log reduction at 25 mg/kg [8, 11]: 0.24
log reduction at 25 mg/kg [8, 12]: 0
log reduction at 25 mg/kg [8, 13]: -1.33
SP MIC90 [4]: 0.5 µg/mL

O=C(O)c1cn(-c2ccc(F)cc2)c2cc(N3CCNCC3)c(F)cc2c1=O [Sarafloxacin]
MRSA MIC90 ([1]; Table 7): >16 µg/mL
Pa MIC90 ([2]; Table 7): >16 µg/mL
Sa MIC90 [3]: 0.25 µg/mL

Cc1oc(=O)oc1CN1CCN(c2cc3c(cc2F)c(=O)c(C(=O)O)c2n3C(C)S2)CC1 (stereo not shown) [Prulifloxacin]
MRSA MIC90 ([1]; Table 7): 32 µg/mL
Pa MIC90 ([2]; Table 7): 16 µg/mL
Sa MIC90 [3]: 0.25 µg/mL
Sp MIC90 [4]: 1 µg/mL

N[C@@H]1[C@H]2CN(c3nc4c(cc3F)c(=O)c(C(=O)O)cn4-c3ccc(F)cc3F)C[C@@H]12 [Trovafloxacin]
Initial Solution pH [6]: 4.2
Initial Solution Appearance [6]: colorless, slightly cloudy, no
solubility at 10 min [6]: > 10000 µg/mL
pH of final solution [6]: 4.2
MRSA MIC90 ([1]; Table 6): 8 µg/mL
MSSA MIC90 [7]: 0.06 µg/mL
Pa MIC90 ([2]; Table 6): >32 µg/mL
SP MIC90 [4]: 0.25 µg/mL

CN1CCN(c2cc3c(cc2F)c(=O)c(C(=O)O)cn3-c2ccc(F)cc2)CC1 [Difloxacin]
Pa MIC90 ([2]; Table 7): 32 µg/mL
Sa MIC90 [3]: 0.5 µg/mL
Sp MIC90 [4]: 2 µg/mL

CN1CCN(c2c(F)cc3c(=O)c(C(=O)O)cn4c3c2OCN4C)CC1 [Marbofloxacin]
Initial Solution pH [6]: 6.5
Initial Solution Appearance [6]: white, very turbid, visible
After pH Adjustment Appearance [6]: White, turbid, visible
After pH Adjustment pH [6]: 1.5
pH of final solution [6]: 1.5
solubility on titration with 1N HCl [6]: solubility was not reached by pH 1.5
MSSA MIC90 [7]: 2 µg/mL
Pa MIC90 ([2]; Table 6): 8 µg/mL
SP MIC90 [4]: 2 µg/mL

C[C@H]1COc2c(C3(N)CC3)c(F)cc3c(=O)c(C(=O)O)cn1c23 [Pazufloxacin]
MRSA MIC90 ([1]; Table 7): >16 µg/mL
Pa MIC90 ([2]; Table 7): >32 µg/mL
Sa MIC90 [3]: 0.5 µg/mL
Sp MIC90 [4]: 4 µg/mL

N[C@@H]1CN(c2c(F)cc3c(=O)c(C(=O)O)cn([C@@H]4C[C@@H]4F)c3c2Cl)CC12CC2 [Sitafloxacin]
MRSA MIC90 ([1]; Table 7): 4 µg/mL
Pa MIC90 ([2]; Table 7): 8 µg/mL
Sa MIC90 [3]: 0.125 µg/mL
Sp MIC90 [4]: 0.06 µg/mL

CCN1CCN(c2cc3c(cc2F)c(=O)c(C(=O)O)cn3C2CC2)CC1 [Enrofloxacin]
MRSA MIC90 ([1]; Table 7): 8 µg/mL
Pa MIC90 ([2]; Table 7): >16 µg/mL
Sa MIC90 [3]: 0.125 µg/mL
Sp MIC90 [4]: 1 µg/mL

NC1CCN(c2c(F)cc3c(=O)c(C(=O)O)cn(C4CC4)c3c2Cl)C1 (stereo not shown) [Clinafloxacin]
MRSA MIC90 ([1]; Table 7): 2 µg/mL
AUC ([5]; inhaled or intranasal, IT): 30.8 µg·h/mL
AUC(0-inf) ([5]; inhaled or intranasal, IT): 3.2 µg·h/mL
half-life ([5]; inhaled or intranasal, IT): 44.4 min
Pa MIC90 ([2]; Table 7): 4 µg/mL
log reduction at 10 mg/kg ([8]; 1 h, read-out: DeltaLOG CPU 1 hr, route IT, dose 10 mg/kg, 1 hr post-drug administration): 2.71
log reduction at 25 mg/kg [8, 10]: 2.86
log reduction at 10 mg/kg ([8]; 4 h, read-out: DeltaLOG CPU 4 hr, route IT, dose 10 mg/kg, 4 hr post-drug administration): 2.4
log reduction at 25 mg/kg [8, 11]: 2.47
log reduction at 10 mg/kg ([8]; ip, 1 h, read-out: DeltaLOG CPU 1 hr, route IP, dose 10 mg/kg, 1 hr post-drug administration): 0.96
log reduction at 25 mg/kg [8, 12]: 1.32
log reduction at 10 mg/kg ([8]; ip, 4 h, read-out: DeltaLOG CPU 4 hr, route IP, dose 10 mg/kg, 4 hr post-drug administration): 1.39
log reduction at 25 mg/kg [8, 13]: 1.33
Sa MIC90 [3]: 0.06 µg/mL
Sp MIC90 [4]: 0.06 µg/mL

COc1c(N2C[C@@H]3CCCN[C@@H]3C2)c(F)cc2c(=O)c(C(=O)O)cn(C3CC3)c12 [Moxifloxacin]
Aerosol Tolerability and Taste [9]: moderate bitter unpleasant taste, some
cough on aerosol exposure [9]: associated with cough
solubility/pH characteristics [6]: best solubility/pH characteristics
solubility at 10 min [6]: > 10000 µg/mL

Cc1c(N2C[C@@H](N)C3(CC3)C2)c(F)c(N)c2c(=O)c(C(=O)O)cn(C3CC3)c12 [Olamufloxacin]
MRSA MIC90 ([1]; Table 7): 2 µg/mL
Pa MIC90 ([2]; Table 7): 16 µg/mL
Sa MIC90 [3]: 1 µg/mL
Sp MIC90 [4]: 0.06 µg/mL

CCn1cc(C(=O)O)c(=O)c2cc(F)c(N3CCN(C)CC3)cc21 [Pefloxacin]
MRSA MIC90 ([1]; Table 6): >32 µg/mL
MSSA MIC90 [7]: 2 µg/mL
Pa MIC90 ([2]; Table 6): >32 µg/mL
SP MIC90 [4]: 32 µg/mL

C[C@H]1NCc2cc(-c3ccc4c(=O)c(C(=O)O)cn(C5CC5)c4c3OC(F)F)ccc21 [Garenoxacin]
MRSA MIC90 ([1]; Table 7): 8 µg/mL
Pa MIC90 ([2]; Table 7): >32 µg/mL
Sa MIC90 [3]: 0.06 µg/mL
Sp MIC90 [4]: 0.06 µg/mL

Cc1c(F)c(N2CCNC(C)C2)cc2c1c(=O)c(C(=O)O)cn2C1CC1 (stereo not shown) [Grepafloxacin]
MRSA MIC90 ([1]; Table 7): 32 µg/mL
Pa MIC90 ([2]; Table 7): >32 µg/mL
Sa MIC90 [3]: 0.125 µg/mL
Sp MIC90 [4]: 0.5 µg/mL

NC[C@H]1O[C@H](O[C@H]2[C@H](O)[C@@H](O[C@H]3O[C@H](CO)[C@@H](O)[C@H](N)[C@H]3O)[C@H](N)C[C@@H]2N)[C@H](N)C[C@@H]1O [Tobramycin]
F, % from Lung vs. IV ([5]; IT): 81%
AUC ([5]; inhaled or intranasal, IT): 5150 µg·h/mL
AUC ([5]; iv): 27.6 µg·h/mL
AUC(0-inf) ([5]; inhaled or intranasal, IT): 13.8 µg·h/mL
half-life ([5]; inhaled or intranasal, IT): 60 min
AUC(0-inf) ([5]; iv): 15.7 µg·h/mL
half-life ([5]; iv): 30 min
log reduction at 5 mg/kg ([8]; 1 h, read-out: DeltaLOG CPU 1 hr, route IT, dose 5 mg/kg, 1 hr post-drug administration): 1.59
log reduction at 5 mg/kg ([8]; 4 h, read-out: DeltaLOG CPU 4 hr, route IT, dose 5 mg/kg, 4 hr post-drug administration): 0.94
log reduction at 5 mg/kg ([8]; ip, 1 h, read-out: DeltaLOG CPU 1 hr, route IP, dose 5 mg/kg, 1 hr post-drug administration): 0.7
log reduction at 5 mg/kg ([8]; ip, 4 h, read-out: DeltaLOG CPU 4 hr, route IP, dose 5 mg/kg, 4 hr post-drug administration): -0.29
